According to patent publication EP3521435A1, “A HIGH STRINGENCY SELECTION SYSTEM FOR PROTEIN EXPRESSION IN PROLINE-AUXOTROPHIC CELLS” (Bayer AG, priority 2018, dated 2019):
pKi: −log10 of the molar value.

Tests used:
[1] = target: T1, murine P5CS short isoform (Mus musculus, UniProt Q9Z110); conditions: Hu et al.; cited from earlier work
T1 sequence (Q9Z110 1-793 isoform Q9Z110-2): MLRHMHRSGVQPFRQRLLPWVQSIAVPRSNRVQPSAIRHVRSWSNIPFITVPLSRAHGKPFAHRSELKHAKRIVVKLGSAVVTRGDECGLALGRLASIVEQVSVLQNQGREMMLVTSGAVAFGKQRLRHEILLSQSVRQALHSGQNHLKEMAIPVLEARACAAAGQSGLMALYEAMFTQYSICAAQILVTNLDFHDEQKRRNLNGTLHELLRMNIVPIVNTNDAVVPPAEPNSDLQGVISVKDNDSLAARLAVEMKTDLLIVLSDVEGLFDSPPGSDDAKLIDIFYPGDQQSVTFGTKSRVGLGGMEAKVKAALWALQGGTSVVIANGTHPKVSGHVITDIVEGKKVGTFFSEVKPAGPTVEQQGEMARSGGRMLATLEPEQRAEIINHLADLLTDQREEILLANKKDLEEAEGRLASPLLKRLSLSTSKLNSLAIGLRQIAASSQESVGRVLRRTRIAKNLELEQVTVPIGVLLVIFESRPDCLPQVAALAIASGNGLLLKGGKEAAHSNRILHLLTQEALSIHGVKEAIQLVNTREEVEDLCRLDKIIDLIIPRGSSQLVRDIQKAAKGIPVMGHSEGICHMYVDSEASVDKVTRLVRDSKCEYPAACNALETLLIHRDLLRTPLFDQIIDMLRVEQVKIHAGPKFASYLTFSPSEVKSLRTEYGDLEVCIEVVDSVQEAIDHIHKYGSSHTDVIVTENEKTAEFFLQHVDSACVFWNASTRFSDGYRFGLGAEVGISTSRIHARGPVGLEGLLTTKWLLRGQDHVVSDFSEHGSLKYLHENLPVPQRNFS

[2] = target: T2, murine P5CS long isoform (Mus musculus, UniProt Q9Z110); conditions: Hu et al.; cited from earlier work
T2 sequence (Q9Z110 1-795): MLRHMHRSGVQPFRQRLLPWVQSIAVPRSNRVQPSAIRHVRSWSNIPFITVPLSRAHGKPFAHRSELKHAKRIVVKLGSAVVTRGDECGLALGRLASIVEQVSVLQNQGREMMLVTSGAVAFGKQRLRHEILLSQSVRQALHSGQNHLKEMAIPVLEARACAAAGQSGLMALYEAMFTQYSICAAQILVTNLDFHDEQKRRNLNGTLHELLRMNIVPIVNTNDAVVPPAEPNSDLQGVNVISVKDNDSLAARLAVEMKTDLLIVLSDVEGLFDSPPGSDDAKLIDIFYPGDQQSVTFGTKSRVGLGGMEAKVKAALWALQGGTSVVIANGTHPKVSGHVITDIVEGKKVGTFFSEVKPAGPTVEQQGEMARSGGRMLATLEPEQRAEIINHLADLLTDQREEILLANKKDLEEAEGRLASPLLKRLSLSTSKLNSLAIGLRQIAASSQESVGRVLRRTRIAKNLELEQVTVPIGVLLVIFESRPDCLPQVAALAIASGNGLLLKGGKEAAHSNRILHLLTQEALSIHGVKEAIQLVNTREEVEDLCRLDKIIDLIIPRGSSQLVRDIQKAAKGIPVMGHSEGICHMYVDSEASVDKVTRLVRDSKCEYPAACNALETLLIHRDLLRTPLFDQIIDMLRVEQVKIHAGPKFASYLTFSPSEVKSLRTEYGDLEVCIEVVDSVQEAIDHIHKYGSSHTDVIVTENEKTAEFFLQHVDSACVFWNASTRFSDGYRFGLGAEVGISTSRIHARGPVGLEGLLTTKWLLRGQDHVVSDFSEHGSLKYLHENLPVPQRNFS

[3] = system: CHO-K1 cells; test: Fed-batch fermentation in shake flasks of human IgG1 expressing stable cell populations; type: cell-based, Chinese hamster; conditions: selected in CD-Fusion + 10 µg/ml Puromycin (pJF1576), non-selecting conditions; for Productivity profile: human IgG1
Description: To test the performance of P5CS selection in combination with DHP in a production cell line development setting (i.e. only a single selection marker in expression vector), vectors with P5CS selection marker in place of Puromycin selection marker containing human IgG1 expression cassettes were generated and tested. For this experiment, the vector pJF1979 was taken as a reference, with Puromycin selection marker placed downstream of the human IgG1 expression cassette. For comparison, the vectors pJF1969 and pJF1970 were used, which contained short and long isoform of P5CS in place of Puromycin selection marker downstream of human IgG1 expression cassette. As control, vector pJF1576 from Example 8 was used, which contained both P5CS (upstream of human IgG1 expression cassette) and Puromycin (downstream of human IgG1 expression cassette) selection markers. […] The fed-batch was without pH control during cultivation and no additional glucose was fed apart from that present in feeding solutions. Table 22, Table 23 and Table 24 show viable cell density, viability and productivity profiles of cell populations cultured in fed-batch fermentation in shake flasks under non-selecting conditions (i.e. production medium containing proline and no additional selective agents like Puromycin or DHP) after inoculation at 3e5 viable cells/ml. […] Table 21: Cell viabilities determined post-transfection on day 21.

## NCCC[C@H](N)C(=O)O [Orn, L-Ornithine]
[1]
  pKi: ~3.60
[2]
  Ornithine inhibition: insensitive

## COc1ccc(C[C@H](N)C(=O)N[C@H]2[C@@H](O)[C@H](n3cnc4c(N(C)C)ncnc43)O[C@@H]2CO)cc1 [Puromycin]
[3]; Day 5 after inoculation
  Productivity profile: 26.6 mg/L
[3]; Day 7 after inoculation
  Productivity profile: 68.9 mg/L
  Viability profile: 99.3%
[3]; Day 10 after inoculation
  Viability profile: 97.0%
[3]; Day 12 after inoculation
  Productivity profile: 304.9 mg/L
  Viable cell density profile: 9,1E +06 VCD/ml
